Measured values as given in the supplement of paper PMC10307832.

Each cell line was assayed with CC(C)N(CCCNC(=O)Nc1ccc(C(C)(C)C)cc1)C[C@H]1O[C@@H](n2ccc3c(N)ncnc32)[C@H](O)[C@@H]1O + CC1(C)CCC(c2ccc(Cl)cc2)=C(CN2CCN(c3ccc(C(=O)NS(=O)(=O)c4ccc(N[C@H](CCN5CCOCC5)CSc5ccccc5)c(S(=O)(=O)C(F)(F)F)c4)cc3)CC2)C1 [Navitoclax] (partner 0.5 µM) (assay: relative viability (nuclei count vs DMSO), 5 days (fraction); higher = more cells survive). Conditions: first compound 8 µM.
How it was run: (§1)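 One day after seeding in 1536-well plates, lung cancer cell lines were dosed by pin tool. Dosing was either single-drug or a fixed anchor-drug dose plus five library-drug doses (not always all listed) in √10 steps. After 5 days, nuclei were stained in one fix-and-stain step and counted on 4× images, and relative viability is the nuclei count of treated wells over that of vehicle wells, given as the median of duplicate plates.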
NCI-H2023 gave a relative viability of 0.988.
A-427 was tested, and the relative viability was 0.925.
Cell Line NCI-H460 has a relative viability of 0.9.
Work on NCI-H838 yielded a relative viability of 1.14.
NCI-H1734 was tested, and the relative viability was 0.752.
Cell Line NCI-H596 has a relative viability of 0.992.
Work on NCI-H2405 yielded a relative viability of 1.05.
NCI-H1395 showed a relative viability of 1.53.
For 201T, the relative viability was 1.25.
NCI-H1915 showed a relative viability of 0.697.
For HCC-827, the relative viability was 0.977.
In the case of LXF-289, the relative viability was 0.854.
With NCI-H2347 the relative viability was 0.71.
CAL-12T gave a relative viability of 1.19.
For NCI-H1651, the relative viability was 0.995.
EPLC-272H showed a relative viability of 1.02.
For NCI-H23, the relative viability was 0.75.
Cell Line NCI-H1355 has a relative viability of 0.935.
NCI-H322M was tested, and the relative viability was 1.16.
With NCI-H1437 the relative viability was 1.04.
NCI-H1755 gave a relative viability of 0.914.

These cell lines were tested with CC(C)=CC[C@@H](O)C1=CC(=O)c2c(O)ccc(O)c2C1=O [Shikonin] + CC1(C)CCC(c2ccc(Cl)cc2)=C(CN2CCN(c3ccc(C(=O)NS(=O)(=O)c4ccc(N[C@H](CCN5CCOCC5)CSc5ccccc5)c(S(=O)(=O)C(F)(F)F)c4)cc3)CC2)C1 [Navitoclax] (partner 0.5 µM) in the same assay as above. Conditions: first compound 0.01 µM.
How it was run: as §1
COR-L 105 gave a relative viability of 0.9.
LOU-NH91 showed a relative viability of 0.662.
Work on ChaGo-K-1 yielded a relative viability of 0.882.
Cell Line NCI-H2170 has a relative viability of 0.578.
NCI-H3122 gave a relative viability of 1.03.
HOP-62 was tested, and the relative viability was 1.05.
LU99A was tested, and the relative viability was 0.924.
BEN was tested, and the relative viability was 0.0555.
Cell Line HARA has a relative viability of 1.14.
With HCC-78 the relative viability was 0.718.
NCI-H441 showed a relative viability of 0.615.
Cell Line LCLC-97TM1 has a relative viability of 0.46.
In the case of NCI-H2023, the relative viability was 1.03.
Cell Line A-427 has a relative viability of 0.931.
In the case of NCI-H460, the relative viability was 1.16.
Work on NCI-H838 yielded a relative viability of 1.12.
For NCI-H1734, the relative viability was 0.941.
NCI-H596 showed a relative viability of 0.936.
For NCI-H2405, the relative viability was 0.962.
Cell Line NCI-H1395 has a relative viability of 1.18.
For 201T, the relative viability was 1.2.
Work on NCI-H1915 yielded a relative viability of 0.719.
Work on HCC-827 yielded a relative viability of 1.02.
Work on LXF-289 yielded a relative viability of 1.01.
In the case of NCI-H2347, the relative viability was 0.775.
CAL-12T gave a relative viability of 1.29.
In the case of NCI-H1651, the relative viability was 1.03.
EPLC-272H was tested, and the relative viability was 1.17.
In the case of NCI-H23, the relative viability was 0.821.
NCI-H1355 was tested, and the relative viability was 0.81.
NCI-H322M was tested, and the relative viability was 1.23.
For NCI-H1437, the relative viability was 1.14.
With NCI-H1755 the relative viability was 1.04.

Same assay, conditions: first compound 0.1 µM
Cell Line COR-L 105 has a relative viability of 0.786.
LOU-NH91 gave a relative viability of 0.646.
ChaGo-K-1 showed a relative viability of 1.4.
NCI-H2170 showed a relative viability of 0.511.
For NCI-H3122, the relative viability was 1.09.
HOP-62 gave a relative viability of 1.15.
For LU99A, the relative viability was 0.88.
In the case of BEN, the relative viability was 0.0688.
HARA gave a relative viability of 1.13.
Work on HCC-78 yielded a relative viability of 0.964.
Work on NCI-H441 yielded a relative viability of 0.76.
With LCLC-97TM1 the relative viability was 0.4.
With NCI-H2023 the relative viability was 1.06.
Cell Line A-427 has a relative viability of 1.14.
With NCI-H460 the relative viability was 1.49.
For NCI-H838, the relative viability was 1.25.
For NCI-H1734, the relative viability was 0.83.
NCI-H596 gave a relative viability of 0.911.
In the case of NCI-H2405, the relative viability was 0.922.
NCI-H1395 was tested, and the relative viability was 1.16.
In the case of 201T, the relative viability was 1.26.
NCI-H1915 was tested, and the relative viability was 0.793.
In the case of HCC-827, the relative viability was 1.08.
Work on LXF-289 yielded a relative viability of 0.873.
NCI-H2347 gave a relative viability of 0.73.
CAL-12T showed a relative viability of 1.3.
With NCI-H1651 the relative viability was 0.98.
EPLC-272H gave a relative viability of 1.07.
NCI-H23 was tested, and the relative viability was 0.748.
NCI-H1355 gave a relative viability of 0.939.
NCI-H322M gave a relative viability of 1.21.
For NCI-H1437, the relative viability was 1.09.
NCI-H1755 gave a relative viability of 0.988.

Same assay, conditions: first compound 0.3162 µM
With COR-L 105 the relative viability was 0.747.
LOU-NH91 gave a relative viability of 0.736.
Cell Line ChaGo-K-1 has a relative viability of 1.01.
NCI-H2170 gave a relative viability of 0.58.
Work on NCI-H3122 yielded a relative viability of 1.05.
HOP-62 gave a relative viability of 1.01.
For LU99A, the relative viability was 0.833.
BEN showed a relative viability of 0.0568.
HARA was tested, and the relative viability was 1.15.
Cell Line HCC-78 has a relative viability of 0.942.
For NCI-H441, the relative viability was 0.742.
LCLC-97TM1 was tested, and the relative viability was 0.495.
For NCI-H2023, the relative viability was 1.03.
Work on A-427 yielded a relative viability of 0.99.
NCI-H460 was tested, and the relative viability was 1.25.
With NCI-H838 the relative viability was 1.28.
NCI-H1734 gave a relative viability of 0.949.
Cell Line NCI-H596 has a relative viability of 0.968.
In the case of NCI-H2405, the relative viability was 1.16.
With NCI-H1395 the relative viability was 1.14.
Cell Line 201T has a relative viability of 1.18.
Cell Line NCI-H1915 has a relative viability of 0.795.
Work on HCC-827 yielded a relative viability of 0.99.
LXF-289 showed a relative viability of 0.96.
In the case of NCI-H2347, the relative viability was 0.781.
CAL-12T gave a relative viability of 1.32.
For NCI-H1651, the relative viability was 1.01.
With EPLC-272H the relative viability was 1.27.
NCI-H23 gave a relative viability of 0.935.
For NCI-H1355, the relative viability was 0.995.
NCI-H322M gave a relative viability of 1.32.
NCI-H1437 showed a relative viability of 1.14.
Cell Line NCI-H1755 has a relative viability of 1.14.

Same assay, conditions: first compound 1 µM
COR-L 105 gave a relative viability of 0.768.
LOU-NH91 gave a relative viability of 0.664.
ChaGo-K-1 gave a relative viability of 1.44.
Cell Line NCI-H2170 has a relative viability of 0.61.
NCI-H3122 was tested, and the relative viability was 1.09.
HOP-62 was tested, and the relative viability was 1.04.
Work on LU99A yielded a relative viability of 0.766.
In the case of BEN, the relative viability was 0.096.
With HARA the relative viability was 1.13.
Cell Line HCC-78 has a relative viability of 0.841.
Work on NCI-H441 yielded a relative viability of 0.396.
LCLC-97TM1 was tested, and the relative viability was 0.277.
Cell Line NCI-H2023 has a relative viability of 0.97.
A-427 gave a relative viability of 0.983.
For NCI-H460, the relative viability was 1.19.
For NCI-H838, the relative viability was 1.2.
With NCI-H1734 the relative viability was 0.74.
With NCI-H596 the relative viability was 0.907.
NCI-H2405 was tested, and the relative viability was 0.837.
With NCI-H1395 the relative viability was 1.09.
201T gave a relative viability of 1.19.
With NCI-H1915 the relative viability was 0.847.
Work on HCC-827 yielded a relative viability of 0.998.
In the case of LXF-289, the relative viability was 0.967.
Cell Line NCI-H2347 has a relative viability of 0.798.
For CAL-12T, the relative viability was 1.22.
In the case of NCI-H1651, the relative viability was 1.06.
EPLC-272H gave a relative viability of 1.14.
In the case of NCI-H23, the relative viability was 0.781.
In the case of NCI-H1355, the relative viability was 0.983.
Cell Line NCI-H322M has a relative viability of 1.27.
NCI-H1437 was tested, and the relative viability was 1.12.
For NCI-H1755, the relative viability was 1.07.
